Measurements from patent US7476673B2, “Disubstituted chalcone oximes as selective agonists of RARγ retinoid receptors” (Allergan, Inc., priority 2003, dated 2009).

Experiments:
RARα [1] = molecular target: T1, RARα (Homo sapiens, UniProt P10276); test: ligand binding assay, RARα; conditions: results expressed in Ki numbers, read-out: RAR Binding α
T1 sequence (P10276 1-462): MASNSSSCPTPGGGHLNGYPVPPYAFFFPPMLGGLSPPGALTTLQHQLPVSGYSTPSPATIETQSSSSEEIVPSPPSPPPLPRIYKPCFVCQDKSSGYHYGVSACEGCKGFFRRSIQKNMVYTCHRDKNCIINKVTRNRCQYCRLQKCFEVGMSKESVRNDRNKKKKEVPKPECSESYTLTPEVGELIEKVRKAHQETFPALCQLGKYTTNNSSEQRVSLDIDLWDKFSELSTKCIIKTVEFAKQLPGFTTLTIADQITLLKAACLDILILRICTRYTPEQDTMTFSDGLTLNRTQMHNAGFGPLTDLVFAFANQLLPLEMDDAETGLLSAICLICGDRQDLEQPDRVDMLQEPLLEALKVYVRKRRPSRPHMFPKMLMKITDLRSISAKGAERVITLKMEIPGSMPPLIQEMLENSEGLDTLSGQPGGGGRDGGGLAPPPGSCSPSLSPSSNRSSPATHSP
Text: (§1) A holoreceptor transactivation assay and a ligand binding assay which measure the antagonist/agonist like activity of the compounds of the invention, or their ability to bind to the several retinoid receptor subtypes, respectively, are described in published PCT Application No. WO WO93/11755 (particularly on pages 30-33 and 37-41) published on Jun. 24, 1993, the specification of which is also incorporated herein by reference. A detailed experimental procedure for holoreceptor transactivations has been described by Heyman et al. Cell 68, 397-406, (1992); Allegretto et al. J. Biol. Chem. 268, 26625-26633, and Mangelsdorf et al. The Retinoids: Biology, Chemistry and Medicine, pp 319-349, Raven Press Ltd., New York, which are expressly incorporated herein by reference. The results obtained in this assay are expressed in EC50 numbers, as they are also in the chimeric receptor transactivation assay. The results of the ligand binding assay are expressed in Ki numbers. (See Cheng et al. Biochemical Pharmacology Vol. 22 pp 3099-3108, expressly incorporated herein by reference.)
(§2) Table 1 discloses the activity of certain exemplary compounds of the invention in the above-described chimeric RAR receptor transactivation and binding assays.

RARβ [2] = molecular target: T2, RARβ (Homo sapiens, UniProt P10826); test: ligand binding assay, RARβ; conditions: results expressed in Ki numbers, read-out: RAR Binding β
T2 sequence (P10826 1-455): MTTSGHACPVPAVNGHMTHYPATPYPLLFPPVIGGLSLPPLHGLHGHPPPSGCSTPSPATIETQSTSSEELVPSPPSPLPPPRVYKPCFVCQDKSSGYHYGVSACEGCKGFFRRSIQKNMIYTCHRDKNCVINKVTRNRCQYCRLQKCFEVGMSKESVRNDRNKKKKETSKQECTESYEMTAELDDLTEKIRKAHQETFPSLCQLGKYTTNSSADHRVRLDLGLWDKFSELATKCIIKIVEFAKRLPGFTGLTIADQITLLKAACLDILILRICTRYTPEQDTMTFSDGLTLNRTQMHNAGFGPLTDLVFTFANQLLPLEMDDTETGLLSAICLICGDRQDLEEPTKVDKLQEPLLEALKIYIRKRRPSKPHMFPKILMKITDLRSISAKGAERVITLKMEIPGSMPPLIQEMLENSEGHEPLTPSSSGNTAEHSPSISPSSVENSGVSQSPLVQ
Text: as §1, §2

RARγ [3] = molecular target: T3, RARγ (Homo sapiens, UniProt P13631); test: ligand binding assay, RARγ; conditions: results expressed in Ki numbers, read-out: RAR Binding γ
T3 sequence (P13631 1-454): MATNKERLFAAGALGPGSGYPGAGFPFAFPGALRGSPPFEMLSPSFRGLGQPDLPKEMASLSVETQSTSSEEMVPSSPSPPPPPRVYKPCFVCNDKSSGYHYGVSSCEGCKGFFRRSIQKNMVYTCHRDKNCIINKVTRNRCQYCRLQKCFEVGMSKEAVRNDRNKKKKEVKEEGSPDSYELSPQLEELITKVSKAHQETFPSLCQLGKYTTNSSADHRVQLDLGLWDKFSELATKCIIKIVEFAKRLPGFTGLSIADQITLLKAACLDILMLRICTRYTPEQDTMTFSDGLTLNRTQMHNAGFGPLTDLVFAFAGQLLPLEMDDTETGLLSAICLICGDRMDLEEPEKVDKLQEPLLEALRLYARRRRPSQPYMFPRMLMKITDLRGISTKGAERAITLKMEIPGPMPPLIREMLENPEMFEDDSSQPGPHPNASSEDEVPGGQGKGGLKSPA
Text: as §1, §2

RARα [4] = molecular target: T4, RARα (Homo sapiens, UniProt P10276); test: chimeric receptor transactivation assay, RARα; format: cell-based; conditions: for EC50: chimeric receptor transactivation, read-out: RAR EC50 α; for % Efficiency α: percentage of maximum compared to standard TTNPB
T4 sequence (P10276 183-417 limits assumed): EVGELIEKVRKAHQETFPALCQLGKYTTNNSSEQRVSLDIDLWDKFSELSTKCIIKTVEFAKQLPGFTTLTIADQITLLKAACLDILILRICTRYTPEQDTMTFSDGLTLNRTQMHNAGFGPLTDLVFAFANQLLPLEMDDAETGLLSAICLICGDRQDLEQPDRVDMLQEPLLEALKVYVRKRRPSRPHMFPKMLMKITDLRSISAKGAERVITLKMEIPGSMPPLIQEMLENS
Protocol: (§3) The compounds of the invention were tested in certain assays for activity as agonists of RAR and RXR retinoid receptors. Specifically, one such assay is a chimeric receptor transactivation assay which tests for agonist-like activity in the RARα, RARβ and RARγ receptor subtypes, and which is based on work published by Feigner P. L. and Holm M. (1989) Focus, 112 is described in detail in U.S. Pat. No. 5,455,265. The specification of U.S. Pat. No. 5,455,265 is hereby expressly incorporated by reference.
as §1
(§4) Efficacy in a transactivation assay is expressed as a percentage of the maximum potency attained by the compound compared to a standard which, in this case, is the compound 4-[(1E)-2-(5,6,7,8-tetrahydro-5,5,8,8-tetramethyl-2-naphthalenyl)-1-propenyl]-benzoic acid. (TTNPB) This standard compound is described in PCT Publication WO 2002077169 A2.
as §2

RARβ [5] = molecular target: T5, RARβ (Homo sapiens, UniProt P10826); test: chimeric receptor transactivation assay, RARβ; format: cell-based; conditions: for EC50: chimeric receptor transactivation, read-out: RAR EC50 β; for % Efficiency β: percentage of maximum compared to standard TTNPB
T5 sequence (P10826 183-455 limits assumed): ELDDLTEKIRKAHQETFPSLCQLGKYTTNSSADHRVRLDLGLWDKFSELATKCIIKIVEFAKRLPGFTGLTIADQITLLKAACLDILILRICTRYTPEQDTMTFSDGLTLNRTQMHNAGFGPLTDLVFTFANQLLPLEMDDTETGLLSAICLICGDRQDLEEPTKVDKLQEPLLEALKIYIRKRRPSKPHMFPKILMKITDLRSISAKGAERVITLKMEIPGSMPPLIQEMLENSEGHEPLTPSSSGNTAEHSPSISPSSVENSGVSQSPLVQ
Protocol: as §3, §1, §4, §2

RARγ [6] = molecular target: T6, RARγ (Homo sapiens, UniProt P13631); test: chimeric receptor transactivation assay, RARγ; format: cell-based; conditions: for EC50: chimeric receptor transactivation, read-out: RAR EC50 γ; for % Efficiency γ: percentage of maximum compared to standard TTNPB
T6 construct: % Efficiency γ; other: percentage of maximum compared to standard TTNPB
T6 sequence (P13631 185-454 limits assumed): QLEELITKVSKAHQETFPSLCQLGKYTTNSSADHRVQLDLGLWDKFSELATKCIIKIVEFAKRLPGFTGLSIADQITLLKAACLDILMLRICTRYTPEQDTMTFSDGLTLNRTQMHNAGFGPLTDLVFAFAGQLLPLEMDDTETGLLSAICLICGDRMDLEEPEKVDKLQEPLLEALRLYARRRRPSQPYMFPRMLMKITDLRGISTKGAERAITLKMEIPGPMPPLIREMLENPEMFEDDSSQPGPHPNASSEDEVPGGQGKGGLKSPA
Protocol: as §3, §1, §4, §2

| Structure (SMILES) | Ki (RARα [1]) [nM] | Ki (RARβ [2]) [nM] | Ki (RARγ [3]) [nM] | EC50 (RARα [4]) [nM] | % Efficiency α (RARα [4]) [%] | EC50 (RARβ [5]) [nM] | % Efficiency β (RARβ [5]) [%] | EC50 (RARγ [6]) [nM] | % Efficiency γ (RARγ [6]) [%] |
| --- | --- | --- | --- | --- | --- | --- | --- | --- | --- |
| CC1(C)CCC(C)(C)c2cc(C(C=Cc3ccc(C(=O)O)cc3)=NO)ccc21 [drawing 8] | 2500 | 1300 | 3 | 441 | 81 | 31 | 102 | 0.09 | 103 |
| CC1(C)CCC(C)(C)c2cc(C(C=Cc3ccc(C(=O)O)cc3)=NO)ccc21 [drawing 9] | 2400 | 2000 | 14 | 150 | 81 | 34 | 112 | 0.37 | 114 |
| CC1(C)CCC(C)(C)c2cc(C(C=Cc3ccc(C(=O)O)cc3F)=NO)ccc21 [drawing 10] | 8000 | 5000 | 4 | > 1000 |  | 53 | 84 | 0.11 | 84 |
| CC1(C)CCC(C)(C)c2cc(C(C=Cc3ccc(C(=O)O)cc3F)=NO)ccc21 [drawing 11] | 8000 | 8000 | 34 | > 1000 |  | 118 | 85 | 0.85 | 76 |
| CC1(C)CCCc2ccc(C(C=Cc3ccc(C(=O)O)cc3)=NO)cc21 [drawing 12] | 6000 | 1200 | 5 | 2120 | 51 | 65 | 106 | 0.09 | 97 |
| CC1(C)CCCc2ccc(C(C=Cc3ccc(C(=O)O)cc3)=NO)cc21 [drawing 14] | 22000 | 4700 | 16 | > 1000 |  | 432 | 88 | 3 | 98 |
| CC1(C)CCCc2cc(C(C=Cc3ccc(C(=O)O)cc3)=NO)ccc21 [drawing 16] | 2000 | > 10000 | 6000 | > 10000 |  | > 10000 |  | > 10000 |  |
| CC1(C)CCCc2cc(C(C=Cc3ccc(C(=O)O)cc3)=NO)ccc21 [drawing 17] | 12000 | 31000 | 27000 | 12000 | 42 | 173 | 60 | 204 | 65 |
| CC1(C)CCSc2ccc(C(C=Cc3ccc(C(=O)O)cc3)=NO)cc21 [drawing 18] | 5000 | 1080 | 6 | 242 | 117 | 79 | 87 | 0.75 | 88 |
| CC1(C)CCSc2ccc(C(C=Cc3ccc(C(=O)O)cc3)=NO)cc21 [drawing 20] | 4500 | 1230 | 55 | > 1000 |  | 103 | 102 | 15 | 100 |
| CC1(C)CC(C)(C)c2cc(C(C=Cc3ccc(C(=O)O)cc3)=NO)ccc2O1 [drawing 24] | > 10000 | > 10000 | > 10000 | > 10000 |  | > 10000 |  | > 10000 |  |
| CC1(C)CC(C)(C)c2cc(C(C=Cc3ccc(C(=O)O)cc3)=NO)ccc2O1 [drawing 25] | 5000 | 5000 | 10000 | 135 | 60 | 93 | 97 | 57 | 95 |
| CC1(C)CC(C)(C)c2cc(C(C=Cc3ccc(C(=O)O)cc3)=NO)ccc21 [drawing 30] | 7000 | 17000 | 6 | 148 | 55 | 83 | 104 | 0.2 | 71 |
| CC1(C)CC(C)(C)c2cc(C(C=Cc3ccc(C(=O)O)cc3)=NO)ccc21 [drawing 31] | 6000 | 11000 | 39 | 134 | 55 | 93 | 118 | 2 | 91 |
| Cc1cc2c(cc1C(C=Cc1ccc(C(=O)O)cc1)=NO)C(C)(C)CCC2(C)C [drawing 36] | 8000 | 17000 | 583 | > 1000 |  | 3440 | 41 | 23 | 48 |
